Patent US20090118274A1, “MONOCYCLIC AMINOPROPYL TETRAHYDRO-PYRAZOLO-PYRIDINE MODULATORS OF CATHEPSIN S” (priority 2007, published 2009)
Read-outs that look alike come from different tables or passages of the source.

Biological target: T1, Recombinant human cathepsin S (CatS) (Homo sapiens, UniProt P25774)
T1 construct: made in house
Experiment: Recombinant human cathepsin S (CatS) fluorogenic substrate inhibition assay
Type: biochemical
Description: Recombinant human cathepsin S (CatS) was expressed in the baculovirus system and purified in one step with a thiopropyl-sepharose column. […] The assay is run in 150 mM sodium acetate pH 5.0 containing 1.5 mM DTT and 150 mM NaCl. […] Measurements are taken every min for 20 min. The rate is calculated from the slope of the increase in fluorescence and the percent inhibition is calculated from this.

[1] = average of results obtained, substrate Z-Valine-Valine-Arginine-AMC 10 μM, pH 5.0, read-out: CatS IC50

T1 sequence (P25774 115-331): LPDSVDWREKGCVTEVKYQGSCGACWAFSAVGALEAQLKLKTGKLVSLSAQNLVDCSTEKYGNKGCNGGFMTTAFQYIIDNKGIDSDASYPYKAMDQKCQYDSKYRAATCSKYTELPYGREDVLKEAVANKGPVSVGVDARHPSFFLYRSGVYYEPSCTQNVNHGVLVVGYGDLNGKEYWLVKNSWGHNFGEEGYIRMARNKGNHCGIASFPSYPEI

IC50 [1] [µM]	SMILES	IC50 [µM]
0.45	CN(C)C1CCN(CC(O)Cn2nc(-c3ccc(Cl)c(CNC(=O)c4ccc(F)cc4)c3)c3c2CCN(S(C)(=O)=O)C3)CC1 (centres unmarked) [Example 85, N-(2-Chloro-5-{1-[3-(4-dimethylamino-piperidin-1-yl)-2-hydroxy-propyl]-5-methanesulfonyl-4,5,6,7-tetrahydro-1H-pyrazolo[4,3-c]pyridin-3-yl}-benzyl)-4-fluoro-benzamide]	
0.03	CNC(=O)NC1CCN(CC(O)Cn2nc(-c3ccc(Cl)c(CNC(=O)c4ccc(F)cc4)c3)c3c2CCN(S(C)(=O)=O)C3)CC1 (centres unmarked) [Example 77, N-[2-Chloro-5-(1-{2-hydroxy-3-[4-(3-methyl-ureido)-piperidin-1-yl]-propyl}-5-methanesulfonyl-4,5,6,7-tetrahydro-1H-pyrazolo[4,3-c]pyridin-3-yl)-benzyl]-4-fluoro-benzamide]	
0.52	CS(=O)(=O)N1CCc2c(c(-c3ccc(C(F)(F)F)c(CNC(=O)c4ccc([N+](=O)[O-])cc4)c3)nn2CC(O)CN2CCCC2)C1 (centres unmarked) [Example 212, N-{5-[1-(2-Hydroxy-3-pyrrolidin-1-yl-propyl)-5-methanesulfonyl-4,5,6,7-tetrahydro-1H-pyrazolo[4,3-c]pyridin-3-yl]-2-trifluoromethyl-benzyl}-4-nitro-benzamide]	
3	CS(=O)(=O)N1CCc2c(c(-c3ccc(Cl)c(CCC(=O)Nc4ccc(F)cc4)c3)nn2CCCN2CCOCC2)C1 [Example 293, 3-{2-Chloro-5-[5-methanesulfonyl-1-(3-morpholin-4-yl-propyl)-4,5,6,7-tetrahydro-1H-pyrazolo[4,3-c]pyridin-3-yl]-phenyl}-N-(4-fluoro-phenyl)-propionamide]	
0.18	CS(=O)(=O)N1CCc2c(c(-c3ccc(C(F)(F)F)c(CNC(=O)c4ccc(F)cc4)c3)nn2CC(O)CN2CC[C@H](CO)C2)C1 (stereo partly drawn) [Example 94, (S)-4-Fluoro-N-(5-{1-[2-hydroxy-3-(3-hydroxymethyl-pyrrolidin-1-yl)-propyl]-5-methanesulfonyl-4,5,6,7-tetrahydro-1H-pyrazolo[4,3-c]pyridin-3-yl}-2-trifluoromethyl-benzyl)-benzamide]	
0.82	CS(=O)(=O)N1CCc2c(c(-c3ccc(Cl)c(CNC(=O)c4cccnc4)c3)nn2CCCN2CCCC2)C1 [Example 232, N-{2-Chloro-5-[5-methanesulfonyl-1-(3-pyrrolidin-1-yl-propyl)-4,5,6,7-tetrahydro-1H-pyrazolo[4,3-c]pyridin-3-yl]-benzyl}-nicotinamide]	
0.74	Cc1ccc(C(=O)NCc2cc(-c3nn(CCCN4CCCC4)c4c3CN(S(C)(=O)=O)CC4)ccc2Cl)cc1 [Example 88, N-{2-Chloro-5-[5-methanesulfonyl-1-(3-pyrrolidin-1-yl-propyl)-4,5,6,7-tetrahydro-1H-pyrazolo[4,3-c]pyridin-3-yl]-benzyl}-4-methyl-benzamide]	
1.03	CC(=O)N1CCC(C(=O)NCc2cc(-c3nn(CC(O)CN4CCCC4)c4c3CN(S(C)(=O)=O)CC4)ccc2C(F)(F)F)CC1 (centres unmarked) [Example 242, 1-Acetyl-piperidine-4-carboxylic acid 5-[1-(2-hydroxy-3-pyrrolidin-1-yl-propyl)-5-methanesulfonyl-4,5,6,7-tetrahydro-1H-pyrazolo[4,3-c]pyridin-3-yl]-2-trifluoromethyl-benzylamide]	
3.1	COC1CCC(C(=O)NCc2cc(-c3nn(CC(O)CN4CCCC4)c4c3CN(S(C)(=O)=O)CC4)ccc2C(F)(F)F)CC1 (centres unmarked) [Example 186, 4-Methoxy-cyclohexanecarboxylic acid 5-[1-(2-hydroxy-3-pyrrolidin-1-yl-propyl)-5-methanesulfonyl-4,5,6,7-tetrahydro-1H-pyrazolo[4,3-c]pyridin-3-yl]-2-trifluoromethyl-benzylamide]	
0.18	CC1(C)CCN(CCCn2nc(-c3ccc(C(F)(F)F)c(CNCc4ccc(F)cc4)c3)c3c2CCN(C(=O)CO)C3)CC1 [Example 297, 1-(1-[3-(4,4-Dimethyl-piperidin-1-yl)-propyl]-3-{3-[(4-fluoro-benzylamino)-methyl]-4-trifluoromethyl-phenyl}-1,4,6,7-tetrahydro-pyrazolo[4,3-c]pyridin-5-yl)-2-hydroxy-ethanone]	
0.42	CC(C)CC(=O)NCc1cc(-c2nn(CC(O)CN3CCC(N(C)C)CC3)c3c2CN(S(C)(=O)=O)CC3)ccc1C(F)(F)F (centres unmarked) [Example 247, N-(5-{1-[3-(4-Dimethylamino-piperidin-1-yl)-2-hydroxy-propyl]-5-methanesulfonyl-4,5,6,7-tetrahydro-1H-pyrazolo[4,3-c]pyridin-3-yl}-2-trifluoromethyl-benzyl)-3-methyl-butyramide]	

Further lines, the compound ahead of its results:

SMILES	IC50 [1] [µM]	IC50 [µM]
CC(C)CCNCc1cc(-c2nn(CC(O)CN3CCC(NS(C)(=O)=O)CC3)c3c2CN(S(C)(=O)=O)CC3)ccc1C(F)(F)F (centres unmarked) [Example 283, N-{1-[2-Hydroxy-3-(5-methanesulfonyl-3-3-[(3-methyl-butylamino)-methyl]-4-trifluoromethyl-phenyl-4,5,6,7-tetrahydro-pyrazolo[4,3-c]pyridin-1-yl)-propyl]-piperidin-4-yl}-methanesulfonamide]		0.8
CS(=O)(=O)N1CCc2c(c(-c3ccc(Cl)c(COCc4ccc(F)cc4)c3)nn2CCCN2CCCC2)C1 [Example 4, 3-[4-Chloro-3-(4-fluoro-benzyloxymethyl)-phenyl]-5-methanesulfonyl-1-(3-pyrrolidin-1-yl-propyl)-4,5,6,7-tetrahydro-1H-pyrazolo[4,3-c]pyridine]	1.45	
CC(=O)NC1CCN(CC(O)Cn2nc(-c3ccc(Cl)c(CNC(=O)c4ccc(F)cc4)c3)c3c2CCN(S(C)(=O)=O)C3)CC1 (centres unmarked) [Example 13, N-(5-{1-[3-(4-Acetylamino-piperidin-1-yl)-2-hydroxy-propyl]-5-methanesulfonyl-4,5,6,7-tetrahydro-1H-pyrazolo[4,3-c]pyridin-3-yl}-2-chloro-benzyl)-4-fluoro-benzamide]	0.04	
CN1CCN(CC(O)Cn2nc(-c3ccc(C(F)(F)F)c(CNC(=O)c4ccc(F)cc4)c3)c3c2CCN(S(C)(=O)=O)C3)CC1 (centres unmarked) [Example 227, 4-Fluoro-N-(5-{1-[2-hydroxy-3-(4-methyl-piperazin-1-yl)-propyl]-5-methanesulfonyl-4,5,6,7-tetrahydro-1H-pyrazolo[4,3-c]pyridin-3-yl}-2-trifluoromethyl-benzyl)-benzamide]		0.76
CC(C)=CC(=O)NCc1cc(-c2nn(CC(O)CN3CCC(F)(F)CC3)c3c2CN(S(C)(=O)=O)CC3)ccc1C(F)(F)F (centres unmarked) [Example 31, 3-Methyl-but-2-enoic acid 5-{1-[3-(4,4-difluoro-piperidin-1-yl)-2-hydroxy-propyl]-5-methanesulfonyl-4,5,6,7-tetrahydro-1H-pyrazolo[4,3-c]pyridin-3-yl}-2trifluoromethyl-benzylamide]	0.11	
CS(=O)(=O)N1CCc2c(c(-c3ccc(C(F)(F)F)c(CNC(=O)c4ccc(F)cc4)c3)nn2CC(O)CN2CCC(O)C2)C1 (centres unmarked) [Example 27, 4-Fluoro-N-(5-{1-[2-hydroxy-3-(3-hydroxy-pyrrolidin-1-yl)-propyl]-5-methanesulfonyl-4,5,6,7-tetrahydro-1H-pyrazolo[4,3-c]pyridin-3-yl}-2-trifluoromethyl-benzyl)-benzamide]	0.23	
CC(=O)NC1CCN(CC(O)Cn2nc(-c3ccc(C(F)(F)F)c(CNC(=O)C=C(C)C)c3)c3c2CCN(S(C)(=O)=O)C3)CC1 (centres unmarked) [Example 29, 3-Methyl-but-2-enoic acid 5-{1-[3-(4-acetylamino-piperidin-1-yl)-2-hydroxy-propyl]-5-methanesulfonyl-4,5,6,7-tetrahydro-1H-pyrazolo[4,3-c]pyridin-3-yl}-2-trifluoromethyl-benzylamide]	0.01	
CS(=O)(=O)N1CCc2c(c(-c3ccc(C(F)(F)F)c(CNC(=O)c4ccc(F)cc4)c3)nn2CC(O)CN2CCCCC2)C1 (centres unmarked) [Example 24, 4-Fluoro-N-{5-[1-(2-hydroxy-3-piperidin-1-yl-propyl)-5-methanesulfonyl-4,5,6,7-tetrahydro-1H-pyrazolo[4,3-c]pyridin-3-yl]-2-trifluoromethyl-benzyl}-benzamide]	0.25	
CS(=O)(=O)N1CCc2c(c(-c3ccc(Cl)c(CNC(=O)c4ccc(F)cc4)c3)nn2CCCN2CCCC2)C1 [Example 35, N-{2-Chloro-5-[5-methanesulfonyl-1-(3-pyrrolidin-1-yl-propyl)-4,5,6,7-tetrahydro-1H-pyrazolo[4,3-c]pyridin-3-yl]-benzyl}-4-fluoro-benzamide]	0.28	
CS(=O)(=O)N1CCc2c(c(-c3ccc(C(F)(F)F)c(CNC(=O)c4ccc(F)cc4)c3)nn2CCCN2CCC3(CCNC3=O)CC2)C1 [Example 41, 4-Fluoro-N-(5-{5-methanesulfonyl-1-[3-(1-oxo-2,8-diaza-spiro[4.5]dec-8-yl)-propyl]-4,5,6,7-tetrahydro-1H-pyrazolo[4,3-c]pyridin-3-yl}-2-trifluoromethyl-benzyl)-benzamide]	0.04	
CS(=O)(=O)N1CCc2c(c(-c3ccc(Cl)c(CNC(=O)c4ccc(F)cc4)c3)nn2CC(O)CN2CCC(C(N)=O)CC2)C1 (centres unmarked) [Example 12, 1-[3-(3-{4-Chloro-3-[(4-fluoro-benzoylamino)-methyl]-phenyl}-5-methanesulfonyl-4,5,6,7-tetrahydro-pyrazolo[4,3-c]pyridin-1-yl)-2-hydroxy-propyl]-piperidine-4-carboxylic acid amide]	0.07	
CC(=O)Nc1cccc(C(=O)NCc2cc(-c3nn(CC(O)CN4CCCC4)c4c3CN(S(C)(=O)=O)CC4)ccc2C(F)(F)F)c1 (centres unmarked) [Example 59, 3-Acetylamino-N-{5-[1-(2-hydroxy-3-pyrrolidin-1-yl-propyl)-5-methanesulfonyl-4,5,6,7-tetrahydro-1H-pyrazolo[4,3-c]pyridin-3-yl]-2-trifluoromethyl-benzyl}-benzamide]	0.5	
